Test results reported in ChEMBL document CHEMBL1152179, “Semi-synthesis and biological activity of gamma-lactones analogs of camptothecin” (Bioorg Med Chem Lett, 2008).
Activity calls are given as the source filed them. The calls are words filed in the database; no cut-off is given here.

Columns and labels:
Assay type in all cases: functional, cell-based
[1] = tested on: A549; test: Cytotoxicity against human A549 cells upto 100 uM by SRB method
[2] = tested on: HT-29; test: Cytotoxicity against human HT-29 cells upto 100 uM by SRB method
[3] = tested on: A549; test: Cytotoxicity against human A549 cells by SRB method
[4] = tested on: HT-29; test: Cytotoxicity against human HT-29 cells by SRB method

## CCCCNC(=O)[C@]1(CC)OC(=O)c2c1cc1n(c2=O)Cc2c-1nc1ccccc1c2CC
[1]
  Activity: inactive
[2]
  Activity: inactive

## CC[C@@]1(C(=O)NCCN2CCOCC2)OC(=O)c2c1cc1n(c2=O)Cc2c-1nc1ccc(OC)cc1c2C1CCCC1
[3]
  IC50: 96.5 µM
[4]
  IC50: 62.9 µM

## CC[C@@]1(C(N)=O)OC(=O)c2c1cc1n(c2=O)Cc2cc3ccccc3nc2-1
[1]
  Activity: inactive
[2]
  Activity: inactive

## CCc1c2c(nc3ccc(O)cc13)-c1cc3c(c(=O)n1C2)COC(=O)[C@]3(O)CC [7-ETHYL-10-HYDROXYCAMPTOTHECIN]
[3]
  IC50: 0.08 µM
[4]
  IC50: 0.12 µM

## CC[C@@]1(C(=O)NCCN2CCSCC2)OC(=O)c2c1cc1n(c2=O)Cc2cc3ccccc3nc2-1
[1]
  Activity: inactive
[2]
  Activity: inactive

## CC[C@@]1(C(=O)NCCN2CCOCC2)OC(=O)c2c1cc1n(c2=O)Cc2c-1nc1ccccc1c2C1CCCC1
[1]
  Activity: inactive
[2]
  Activity: inactive

## CC[C@@]1(C(=O)NCCN2CCOCC2)OC(=O)c2c1cc1n(c2=O)Cc2c-1nc1ccccc1c2C(=O)C1CC1
[1]
  Activity: inactive
[2]
  Activity: inactive

## CC[C@@]1(O)C(=O)OCc2c1cc1n(c2=O)Cc2cc3c(CN(C)C)c(O)ccc3nc2-1 [TOPOTECAN]
[3]
  IC50: 0.48 µM
[4]
  IC50: 0.375 µM

## CC[C@@]1(C(=O)NCCN2CCOCC2)OC(=O)c2c1cc1n(c2=O)Cc2cc3ccccc3nc2-1
[3]
  IC50: 25.6 µM
[4]
  IC50: 39.9 µM

## CC[C@@]1(C(=O)NCCN2CCCC2)OC(=O)c2c1cc1n(c2=O)Cc2cc3ccccc3nc2-1
[3]
  IC50: 94.3 µM
[4]
  IC50: 31.6 µM

## CCCCNC(=O)[C@]1(CC)OC(=O)c2c1cc1n(c2=O)Cc2cc3ccccc3nc2-1
[3]
  IC50: 70.1 µM
[4]
  IC50: 68.3 µM

## CCc1c2c(nc3ccc(OC)cc13)-c1cc3c(c(=O)n1C2)C(=O)O[C@@]3(CC)C(=O)NCCN1CCOCC1
[1]
  Activity: inactive
[2]
  Activity: inactive

## CC[C@@]1(C(=O)NCCN2CCN(C)CC2)OC(=O)c2c1cc1n(c2=O)Cc2cc3ccccc3nc2-1
[3]
  IC50: 53.1 µM
[4]
  IC50: 7.25 µM

## CCN(CC)CCNC(=O)[C@]1(CC)OC(=O)c2c1cc1n(c2=O)Cc2cc3ccccc3nc2-1
[3]
  IC50: 65.3 µM
[4]
  IC50: 31.6 µM

## CC[C@@]1(C(=O)NCCN2CCCCC2)OC(=O)c2c1cc1n(c2=O)Cc2cc3ccccc3nc2-1
[3]
  IC50: 74.9 µM
[4]
  IC50: 31.6 µM

## CC[C@@]1(C(=O)NCCO)OC(=O)c2c1cc1n(c2=O)Cc2cc3ccccc3nc2-1
[1]
  Activity: inactive
[2]
  Activity: inactive

## CC[C@@]1(C(=O)NCCN2CCOCC2)OC(=O)c2c1cc1n(c2=O)Cc2c-1nc1ccccc1c2C1CCCCC1
[1]
  Activity: inactive
[2]
  Activity: inactive

## CC[C@@]1(C(=O)NCCCO)OC(=O)c2c1cc1n(c2=O)Cc2cc3ccccc3nc2-1
[1]
  Activity: inactive
[2]
  Activity: inactive
